Values quoted from earlier work in US20240065969A1, “OPHTHALMIC TOPICAL CREAM FORMULATIONS AND USES THEREOF” (Glaukos Corporation, priority 2022, published 2024).

- pKa: ~6.5
Structure (SMILES): CC[C@@H]1C(=O)OC[C@@H]1Cc1cncn1C [pilocarpine]
